US20150291645A1, “ISOACTEOSIDE DERIVATIVE AND USE THEREOF” (Sinphar Pharmaceutical Co., Ltd., priority 2014, published 2015)

How the values were obtained:
[1] = system: β-amyloid peptides (Aβ); settings: position of the caffeoyl group (sixth vs fourth), WO 2011/157059 A1; cited from earlier work
[2] = system: Aβ40 degrading enzyme activity in Neuro-2a conditioned medium; assay: Aβ40 degradation in Neuro-2a conditioned medium (Human Aβ1-40 immunoassay); type: biochemical, mouse; settings: 50 μM and 100 μM, 24 hours 37° C., FIG. 5
Method: Experimental method: 2×10^7 of mouse neuroblastoma cells (Neuro-2a) were placed on a T175 culture medium, and after overnight, the T175 culture medium was replaced with 30 mL of a chemical-defined medium incubating for 24 hours. After 24 hours, the chemical-defined medium incubated with the cells, which was called a conditioned medium, was centrifuged for 5 minutes at 13,000 rpm, and supernatant liquid was obtained. 10 ng of Aβ40 and testing medicine were added to 300 μL of the conditioned medium, and the mixture was reacted at 37° C. for 24 hours. Immunoassay kits (Human Aβ1-40 Immunoassay kits, Cat.KHB3482, Life Technologies) were used to measure the remaining amount of Aβ in each reaction to examine whether the medicine can improve the activity for enzyme in the medium to degrade Aβ. One not adding any testing medicine (i.e. only containing 10 ng of Aβ40) was a control, and the measured level of Aβ was set to 100%. The levels of Aβ after treated by the testing medicine were compared to the control and expressed in percentage. […] The statistical differences between the control and the testing samples were analyzed by Dunnett's multiple comparison test, which “*” represented p<0.05; “**” represented p<0.01; “***” represented p<0.001; and “****” represented p<0.0001.

| SMILES | activity of inhibiting β-amyloid peptides (Aβ) accumulation [1] | extracellular Aβ40 degradation [2] |
| --- | --- | --- |
| C[C@@H]1O[C@@H](O[C@@H]2[C@@H](O)[C@H](OCCc3ccc(O)c(O)c3)O[C@H](CO)[C@H]2OC(=O)/C=C/c2ccc(O)c(O)c2)[C@H](O)[C@H](O)[C@H]1O [acteoside] | the activity decreased |  |
| O=C(/C=C/c1ccc(O)c(O)c1)OCC1OC(OCCc2ccc(O)c(O)c2)C(O)C(O)C1O (centres unmarked) [Sample 9] |  | could effectively improve extracellular Aβ40 degradation |
